# Measured values as given in patent US20020120098A1, “Enhanced stimulation of erythropoiesis” (priority 1996, published 2002).
# What was measured:
# [1] = tested on: cord blood LDMNC; test: Erythroid differentiation of cord blood LDMNC in liquid culture; assay type: cell-based, human; conditions: 20 days
# Procedure: The ability of purified adult hemoglobin to stimulate erythroid progenitor differentiation has also been studied using a liquid culture system containing Epo. In this liquid culture system hemin is known to accelerate erythroid differentiation of progenitors obtained from normal adult peripheral blood, and to selectively increase fetal hemoglobin production in these cells. Primary low density mononuclear cells (LDMNC) isolated from cord blood were tested in this culture system. […] The addition of HAo (7.8-15.6 μM) to the cultures results in a further increase in glycophorin A/CD71 co-expression (80% vs. 53% in the Epo only control) and benzidine staining (82% vs. 43% in the Epo only control) after 20 days in culture.
# The effect of HAo on erythroid differentiation was tested on cord blood LDMNC. […] 1.0 mg/ml HAo (15.6 μM) was added to Epo-stimulated cultures and the cultured cells were analyzed by flow cytometry (Epics Elite, Coulter) after 20 days for the co-expression of the red cell-specific marker, glycophorin A, and the transferrin receptor, CD71. […] Cultured cells were stained with anti-CD71 (abscissa) and anti-glycophorin A (ordinate) antibodies and the number of single- or double-stained cells (z-axis) analyzed. […] The percentage of glycophorin A^+/CD71^+ cells was determined from analysis of at least 6,500 cells per sample.
# [2] = Safety in animal experiments and Phase I clinical trial; assay type: in vivo; conditions: series of animal experiments and Phase I clinical trial in humans
# Text: A preferred embodiment of the present invention is the therapeutic application of hemoglobin to the treatment of anemia. HEMOLINK™ is a hemoglobin based oxygen carrier intended for use as a red blood cell substitute at doses that may exceed. 100 g. […] The present invention specifically proposes the repetitive administration of HEMOLINK™ in small doses to patients with anemia of any type. The anemias most amenable to hemoglobin therapy include: (1) anemias due to insufficient Epo production, including chronic renal failure, malaria, AIDS, rheumatoid arthritis, anemia of cancer, sickle cell anemia, prematurity and late anemia associated with Rhesus hemolytic disease of the newborn; (2) anemias due to inadequate iron incorporation, including iron-deficient anemias and anemias associated with chronic disease (e.g. infection, inflammation, trauma, or neoplastic diseases); and (3) anemias due to bone marrow failure that may be idiopathic or drug-induced.
Substance,"percentage of cells co-expressing glycophorin A and CD71 ([1]; HAo 1.0 mg/ml (15.6 μM; b99: 7.8-15.6 μM), Epo-stimulated, untreated 53%) [%]","benzidine staining ([1]; HAo 7.8-15.6 μM, 2 U/ml Epo, Epo only control 43%) [%]",safety [2]
HAo: adult human hemoglobin obtained from red blood cells and purified by displacement chromatography; uncross linked product,80,82,
HEMOLINK™: chemically crosslinked hemoglobin prepared by treating human hemoglobin with a polyaldehyde (O-raffinose),,,demonstrated to be safe
